Measured values: patent US20230265098A1, “ALKYNE QUINAZOLINE DERIVATIVES AS INHIBITORS OF ERBB2” (EnLiven Therapeutics, Inc., priority 2020, published 2023)

Assays:
MDA-MB-175VII cells = experiment: Cell viability assay (CellTiter Glo); format: cell-based; settings: Homo sapiens, 72 hours, 2000 cells per well, 384-well, RPMI + 10% FBS
Procedure: (§1) Cells were treated with compounds, and cell viability was measured as a metric of kinase inhibition.
(§2) The Ba/F3 cell line is IL-3-dependent mouse cell line derived from the C3H mouse strain. Ba/F3 cell lines were engineered to express human ERBB2 or EGFR kinases, rendering the cells IL-3 independent. The lines were generated via retroviral transduction utilizing a Moloney murine leukemia virus (MMLV) promoter, and constructs are stably integrated into the cell genome.
(§3) Similarly, Ba/F3 cell lines engineered to express EGFR, ERBB2, or ERBB2 mutants were grown, harvested, counted and seeded at 3000 cells per well in 96-well plates for the data sets shown in Tables B3-B4, and seeded at 300 cells per well in 384-well plates for the data set shown in Table B5. A subset of wells contained media only (low control, “LC”).
(§4) Table B2 provides the growth media and number of cells seeded per well for the each cell line.
(§5) Compounds were dissolved in DMSO and serially diluted. Serially-diluted compound or a DMSO only control (high control, “HC”) was added to the plated cells in each well. […] The final proportion of DMSO never exceeded 0.1%.
(§6) Plates were placed in a 37° C., 5% CO2 incubator for 72 hours. Plates were then removed from the incubator and equilibrated for 15 minutes at room temperature. 40 IA of CellTiter Glo reagent (Promega) was added to measure the relative level of metabolically active cells by quantifying intracellular ATP concentrations. Plates were incubated for 30 minutes at room temperature, and luminescence was measured. Percent viability was normalized to a vehicle control only using the following formula: % viability=100×(LumSample−LumLC) (LumHC−LumLC). Graphical curves were fitted using a nonlinear regression model with a sigmoidal dose response.

A431 cells = experiment: Cell viability assay (CellTiter Glo); format: cell-based; settings: Homo sapiens, A-431; 72 hours; 1500 cells per well, 384-well; DMEM + 10% FBS
Procedure: as §1, §2, §3, §4, §5, §6

BT-474 cells = experiment: Cell viability assay (CellTiter Glo); format: cell-based; settings: Homo sapiens, 72 hours, 2000 cells per well, 384-well, DMEM + 10% FBS
Procedure: as §1, §2, §3, §4, §5, §6

[1] = molecular target: T1, phosphorylated ERBB2 (pERBB2) (Homo sapiens, UniProt P04626); experiment: Detection of phosphorylated ERBB2 (pERBB2) by ELISA in BT-474 cells; format: cell-based; settings: four hours incubation with compound, OD 450 nm
T1 construct: endogenous in cells; host or cells: BT-474
Procedure: BT-474 cells were seeded into a 96-well at 2.0*10^4 cells/100 μl/well.
Compounds were dissolved and serially diluted in DMSO. The compounds were then were added, mixed, and incubated for four hours at 37° C., 5% CO2. Compounds were added using four-fold dilutions at final concentrations ranging from 10 μM to 0.01 nM.
Following the four hour incubation with compounds, cell lysates were prepared. Plates were centrifuged for 5 min at 3000 RPM, and supernatant was removed from each well. Cells were washed 3 times by resuspension in 150 μl PBS, followed by centrifugation and removal of the supernatant, as above. […] Cells were incubated with lysis buffer for 1 hour at 4° C., and then stored at −80° C.
Enzyme-linked immunosorbent assays (ELISA) were performed to measure phosphorylated ERBB2 levels. […] The next day, plates were washed with PBS+0.05% Tween20 (PBST). 150 μl of 5% BSA blocking solution was added for 1 hour at room temperature, with shaking. Plates were washed with PBST. Cell lysates were thawed and 100 μl of lysate was added to the ELISA plate. The plates were incubated for 2 hours at room temperature, with shaking. […] Plates were incubated for 1 hour at room temperature, with shaking. Plates were then washed with PBST, and 100 μl TMB substrate solution (R&D Systems, cat #DY999) was added. Plate were incubated in the dark for 20 minutes at room temperature. 50 μl of Stop solution (R&D Systems, cat #DY994) (50 μl) was added to each well and mixed.
Optical density at 450 nm was read on an EnSpire plate reader (Perkin Elmer). The remaining kinase activity by calculated using the following formula: % Relative activity=100×(A450sample−A450LC)/(A450HC−A450LC). The low and high control values (“LC” and “HC”) were generated from lysate from wells without cells or with cells treated with 0.1% DMSO, respectively.

Ba/F3 ERBB2-L755S = molecular target: T2, Ba/F3 ERBB2-L755S (Homo sapiens, UniProt P04626, L755S, cells depend on it); experiment: Cell viability assay (CellTiter Glo); format: cell-based, mouse; settings: 72 hours; 3000 cells per well, 96-well plates; read-out: Cell viability IC50, nM, Ba/F3 ERBB2-L755S
T2 construct: Ba/F3 cell lines were engineered to express human ERBB2 or EGFR kinases, rendering the cells IL-3 independent
Procedure: as §1, §2, §3, §4, §5, §6

Ba/F3 ERBB2 wt = molecular target: T3, Ba/F3 ERBB2 wt (Homo sapiens, UniProt P04626); experiment: Cell viability assay (CellTiter Glo); format: cell-based, mouse; settings: 72 hours; 3000 cells per well, 96-well plates; read-out: Cell viability IC50, nM, Ba/F3 ERBB2 wt
T3 construct: Ba/F3 cell lines were engineered to express human ERBB2 or EGFR kinases, rendering the cells IL-3 independent
Procedure: as §1, §2, §3, §4, §5, §6

Ba/F3 ERBB2-V777L = molecular target: T4, Ba/F3 ERBB2-V777L (Homo sapiens, UniProt P04626, V777L, cells depend on it); experiment: Cell viability assay (CellTiter Glo); format: cell-based, mouse; settings: 72 hours; 3000 cells per well, 96-well plates; read-out: Cell viability IC50, nM, Ba/F3 ERBB2-V777L
T4 construct: Ba/F3 cell lines were engineered to express human ERBB2 or EGFR kinases, rendering the cells IL-3 independent
Procedure: as §1, §2, §3, §4, §5, §6

[2] = molecular target: T5, Ba/F3 ERBB2 A775_G776insYVMA (Homo sapiens, UniProt P04626, DUP772-775, cells depend on it); experiment: Cell viability assay (CellTiter Glo); format: cell-based, mouse; settings: 72 hours; 3000 cells per well, 96-well plates (Tables B3-B4); read-out: Cell viability IC50, nM, Ba/F3 ERBB2 A775_G776insYVMA
T5 construct: Ba/F3 cell lines were engineered to express human ERBB2 or EGFR kinases, rendering the cells IL-3 independent
Procedure: as §1, §2, §3, §4, §5, §6

Ba/F3 ERBB2-G776VC = molecular target: T6, Ba/F3 ERBB2-G776VC (Homo sapiens, UniProt P04626, DELINS776-776VC, cells depend on it); experiment: Cell viability assay (CellTiter Glo); format: cell-based, mouse; settings: 72 hours; 3000 cells per well, 96-well plates; read-out: Cell viability IC50, nM, Ba/F3 ERBB2-G776VC
T6 construct: Ba/F3 cell lines were engineered to express human ERBB2 or EGFR kinases, rendering the cells IL-3 independent
Procedure: as §1, §2, §3, §4, §5, §6

[3] = molecular target: T7, Ba/F3 ERBB2-V777_G778insGC (Homo sapiens, UniProt P04626, INS778CG, cells depend on it); experiment: Cell viability assay (CellTiter Glo); format: cell-based, mouse; settings: 72 hours; 3000 cells per well, 96-well plates; read-out: Cell viability IC50, nM, Ba/F3 ERBB2-V777_G778insGC
T7 construct: Ba/F3 cell lines were engineered to express human ERBB2 or EGFR kinases, rendering the cells IL-3 independent
Procedure: as §1, §2, §3, §4, §5, §6

Ba/F3 ERBB2-T798M = molecular target: T8, Ba/F3 ERBB2-T798M (Homo sapiens, UniProt P04626, T798M, cells depend on it); experiment: Cell viability assay (CellTiter Glo); format: cell-based, mouse; settings: 72 hours; 3000 cells per well, 96-well plates; read-out: Cell viability IC50, nM, Ba/F3 ERBB2-T798M
T8 construct: Ba/F3 cell lines were engineered to express human ERBB2 or EGFR kinases, rendering the cells IL-3 independent
Procedure: as §1, §2, §3, §4, §5, §6

Ba/F3 ERBB2-L869R = molecular target: T9, Ba/F3 ERBB2-L869R (Homo sapiens, UniProt P04626, L869R, cells depend on it); experiment: Cell viability assay (CellTiter Glo); format: cell-based, mouse; settings: 72 hours; 3000 cells per well, 96-well plates; read-out: Cell viability IC50, nM, Ba/F3 ERBB2-L869R
T9 construct: Ba/F3 cell lines were engineered to express human ERBB2 or EGFR kinases, rendering the cells IL-3 independent
Procedure: as §1, §2, §3, §4, §5, §6

[4] = molecular target: T10, Ba/F3 ERBB2-P780_Y781insGSP (Homo sapiens, UniProt P04626, DUP778-780, cells depend on it); experiment: Cell viability assay (CellTiter Glo); format: cell-based, mouse; settings: 72 hours; 3000 cells per well, 96-well plates; read-out: Cell viability IC50, nM, Ba/F3 ERBB2-P780_Y781insGSP
T10 construct: Ba/F3 cell lines were engineered to express human ERBB2 or EGFR kinases, rendering the cells IL-3 independent
Procedure: as §1, §2, §3, §4, §5
as §6, with “Percent viability was normalized to a vehicle control only using the following formula: % viability=100×(LumSample−LumLC) (LumHC−LumLC).” left out

T1 sequence (P04626 23-1255): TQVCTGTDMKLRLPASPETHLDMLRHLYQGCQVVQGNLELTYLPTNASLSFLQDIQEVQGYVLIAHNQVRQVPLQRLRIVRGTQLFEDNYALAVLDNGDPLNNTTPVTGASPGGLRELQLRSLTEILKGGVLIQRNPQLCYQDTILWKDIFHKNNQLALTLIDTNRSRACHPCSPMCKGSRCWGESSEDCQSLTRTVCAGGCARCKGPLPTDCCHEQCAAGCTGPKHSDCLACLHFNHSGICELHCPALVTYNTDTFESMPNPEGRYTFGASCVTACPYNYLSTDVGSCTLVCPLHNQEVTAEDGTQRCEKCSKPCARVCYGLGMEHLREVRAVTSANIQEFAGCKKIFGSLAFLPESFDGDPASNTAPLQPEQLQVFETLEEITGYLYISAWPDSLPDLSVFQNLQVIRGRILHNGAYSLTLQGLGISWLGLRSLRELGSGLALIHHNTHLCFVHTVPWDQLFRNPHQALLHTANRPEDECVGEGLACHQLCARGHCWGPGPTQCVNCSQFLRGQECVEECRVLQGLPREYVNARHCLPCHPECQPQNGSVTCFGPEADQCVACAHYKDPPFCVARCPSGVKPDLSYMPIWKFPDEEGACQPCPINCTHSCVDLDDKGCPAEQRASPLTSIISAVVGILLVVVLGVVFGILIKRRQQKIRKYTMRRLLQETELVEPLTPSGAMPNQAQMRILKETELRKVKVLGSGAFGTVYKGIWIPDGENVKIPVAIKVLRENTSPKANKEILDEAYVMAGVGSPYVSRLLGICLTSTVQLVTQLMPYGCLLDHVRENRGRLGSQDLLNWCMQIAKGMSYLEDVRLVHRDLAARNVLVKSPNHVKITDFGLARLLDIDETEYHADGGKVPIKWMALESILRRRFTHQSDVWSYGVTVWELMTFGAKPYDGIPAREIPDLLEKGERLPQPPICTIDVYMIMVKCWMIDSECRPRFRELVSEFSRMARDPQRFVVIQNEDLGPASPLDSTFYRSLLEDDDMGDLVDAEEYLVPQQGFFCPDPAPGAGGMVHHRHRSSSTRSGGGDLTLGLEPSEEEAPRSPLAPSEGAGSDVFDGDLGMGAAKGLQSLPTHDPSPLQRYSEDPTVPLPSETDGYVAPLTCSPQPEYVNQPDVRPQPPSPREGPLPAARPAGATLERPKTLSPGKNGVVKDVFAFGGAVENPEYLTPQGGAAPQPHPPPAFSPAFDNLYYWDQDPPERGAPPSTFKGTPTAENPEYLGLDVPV
T3 sequence (P04626 whole entry, change not shown): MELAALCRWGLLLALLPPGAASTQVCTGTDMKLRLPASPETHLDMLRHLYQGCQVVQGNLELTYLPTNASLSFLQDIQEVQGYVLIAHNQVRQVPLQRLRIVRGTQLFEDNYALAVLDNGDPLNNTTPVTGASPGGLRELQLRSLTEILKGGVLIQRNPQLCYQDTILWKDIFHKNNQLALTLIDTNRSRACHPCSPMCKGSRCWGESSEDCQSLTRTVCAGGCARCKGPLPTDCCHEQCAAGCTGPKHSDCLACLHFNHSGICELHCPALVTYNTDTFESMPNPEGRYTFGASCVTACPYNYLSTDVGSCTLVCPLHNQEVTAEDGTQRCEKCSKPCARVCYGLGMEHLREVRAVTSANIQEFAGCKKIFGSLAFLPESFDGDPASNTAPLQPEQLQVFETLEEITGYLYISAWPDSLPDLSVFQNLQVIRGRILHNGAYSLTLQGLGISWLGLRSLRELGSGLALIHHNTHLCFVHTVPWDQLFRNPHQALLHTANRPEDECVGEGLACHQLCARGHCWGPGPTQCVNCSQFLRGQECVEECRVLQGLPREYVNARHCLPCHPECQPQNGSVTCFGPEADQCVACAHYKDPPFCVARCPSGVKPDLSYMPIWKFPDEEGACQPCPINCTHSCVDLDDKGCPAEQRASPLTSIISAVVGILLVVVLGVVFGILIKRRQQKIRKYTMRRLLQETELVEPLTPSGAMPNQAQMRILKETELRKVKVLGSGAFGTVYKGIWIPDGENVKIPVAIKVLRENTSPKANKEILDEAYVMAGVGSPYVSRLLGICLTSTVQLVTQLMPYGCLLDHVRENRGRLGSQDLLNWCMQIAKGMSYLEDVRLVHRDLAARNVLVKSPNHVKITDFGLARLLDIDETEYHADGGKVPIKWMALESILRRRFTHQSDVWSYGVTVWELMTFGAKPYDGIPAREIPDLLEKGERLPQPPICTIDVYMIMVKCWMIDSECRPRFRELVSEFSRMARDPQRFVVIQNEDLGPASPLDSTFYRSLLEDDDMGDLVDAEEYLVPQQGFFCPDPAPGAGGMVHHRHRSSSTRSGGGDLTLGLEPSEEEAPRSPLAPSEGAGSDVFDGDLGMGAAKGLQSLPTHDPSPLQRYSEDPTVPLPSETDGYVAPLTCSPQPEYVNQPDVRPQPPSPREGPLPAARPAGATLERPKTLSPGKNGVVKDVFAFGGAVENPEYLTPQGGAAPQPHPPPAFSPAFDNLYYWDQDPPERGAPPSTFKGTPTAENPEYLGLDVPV
T5 sequence (P04626 with tags, fused parts or gaps DUP772-775): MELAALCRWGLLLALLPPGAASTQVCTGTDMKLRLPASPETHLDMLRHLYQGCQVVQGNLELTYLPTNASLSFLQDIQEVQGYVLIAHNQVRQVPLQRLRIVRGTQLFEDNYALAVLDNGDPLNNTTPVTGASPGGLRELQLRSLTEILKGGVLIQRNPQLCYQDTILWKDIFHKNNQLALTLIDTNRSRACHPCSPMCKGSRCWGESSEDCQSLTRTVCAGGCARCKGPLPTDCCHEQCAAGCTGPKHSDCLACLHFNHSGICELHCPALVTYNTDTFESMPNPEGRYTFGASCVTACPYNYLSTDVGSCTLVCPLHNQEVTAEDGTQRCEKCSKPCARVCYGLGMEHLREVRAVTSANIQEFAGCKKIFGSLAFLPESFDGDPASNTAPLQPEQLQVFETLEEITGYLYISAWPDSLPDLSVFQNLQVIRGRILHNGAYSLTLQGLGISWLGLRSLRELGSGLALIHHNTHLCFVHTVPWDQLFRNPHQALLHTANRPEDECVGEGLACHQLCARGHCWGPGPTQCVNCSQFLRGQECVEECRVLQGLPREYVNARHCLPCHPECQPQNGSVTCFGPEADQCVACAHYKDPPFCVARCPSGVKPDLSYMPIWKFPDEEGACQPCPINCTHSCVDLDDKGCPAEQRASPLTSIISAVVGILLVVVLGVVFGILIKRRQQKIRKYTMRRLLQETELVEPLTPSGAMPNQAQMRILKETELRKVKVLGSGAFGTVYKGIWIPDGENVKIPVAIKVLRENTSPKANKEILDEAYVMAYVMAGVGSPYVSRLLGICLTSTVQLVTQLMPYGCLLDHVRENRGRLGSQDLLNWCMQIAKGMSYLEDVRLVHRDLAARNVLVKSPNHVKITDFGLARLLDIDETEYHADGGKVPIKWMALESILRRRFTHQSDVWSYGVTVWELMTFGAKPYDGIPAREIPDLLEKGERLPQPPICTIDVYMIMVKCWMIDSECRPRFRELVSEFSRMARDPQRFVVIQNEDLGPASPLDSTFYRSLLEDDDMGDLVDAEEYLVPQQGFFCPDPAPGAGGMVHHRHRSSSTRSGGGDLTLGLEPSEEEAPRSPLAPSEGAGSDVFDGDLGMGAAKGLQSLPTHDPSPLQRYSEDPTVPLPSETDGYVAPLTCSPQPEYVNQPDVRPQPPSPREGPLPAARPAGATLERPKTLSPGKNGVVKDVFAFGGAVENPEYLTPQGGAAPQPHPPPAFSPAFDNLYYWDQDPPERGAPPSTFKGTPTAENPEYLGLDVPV
T6 sequence (P04626 with tags, fused parts or gaps DELINS776-776VC): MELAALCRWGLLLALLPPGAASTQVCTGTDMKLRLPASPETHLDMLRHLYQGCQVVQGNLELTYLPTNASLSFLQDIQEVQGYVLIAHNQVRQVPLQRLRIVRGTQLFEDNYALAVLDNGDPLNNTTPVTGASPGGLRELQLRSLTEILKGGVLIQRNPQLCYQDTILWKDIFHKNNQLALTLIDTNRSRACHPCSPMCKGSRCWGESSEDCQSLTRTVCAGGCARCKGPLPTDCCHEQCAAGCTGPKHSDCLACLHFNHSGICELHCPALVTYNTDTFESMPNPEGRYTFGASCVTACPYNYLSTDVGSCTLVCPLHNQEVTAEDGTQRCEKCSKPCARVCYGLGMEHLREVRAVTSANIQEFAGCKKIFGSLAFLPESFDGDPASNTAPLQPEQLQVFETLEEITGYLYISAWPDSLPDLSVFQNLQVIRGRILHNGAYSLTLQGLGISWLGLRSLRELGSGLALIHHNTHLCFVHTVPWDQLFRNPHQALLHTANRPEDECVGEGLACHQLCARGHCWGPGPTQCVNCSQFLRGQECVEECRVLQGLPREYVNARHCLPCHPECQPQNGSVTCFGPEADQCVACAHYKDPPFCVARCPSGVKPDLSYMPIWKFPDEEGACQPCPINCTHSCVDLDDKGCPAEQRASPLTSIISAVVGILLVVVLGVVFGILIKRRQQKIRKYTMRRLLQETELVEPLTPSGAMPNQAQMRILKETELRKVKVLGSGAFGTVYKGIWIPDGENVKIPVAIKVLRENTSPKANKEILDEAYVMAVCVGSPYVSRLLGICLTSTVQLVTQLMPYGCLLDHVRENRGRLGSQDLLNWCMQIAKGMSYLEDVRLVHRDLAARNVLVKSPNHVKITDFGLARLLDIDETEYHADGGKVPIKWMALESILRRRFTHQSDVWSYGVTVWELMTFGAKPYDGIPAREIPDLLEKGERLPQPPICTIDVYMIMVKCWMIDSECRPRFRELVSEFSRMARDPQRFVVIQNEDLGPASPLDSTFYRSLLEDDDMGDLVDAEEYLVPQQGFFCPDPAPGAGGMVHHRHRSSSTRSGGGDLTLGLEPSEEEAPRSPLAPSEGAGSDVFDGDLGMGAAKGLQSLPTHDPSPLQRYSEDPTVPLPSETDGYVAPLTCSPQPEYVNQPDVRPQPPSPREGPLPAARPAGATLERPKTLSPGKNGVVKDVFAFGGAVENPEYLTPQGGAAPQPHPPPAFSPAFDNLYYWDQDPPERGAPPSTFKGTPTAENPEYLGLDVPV

Row | Compound | IC50 (MDA-MB-175VII cells) [nM] | IC50 (A431 cells) [nM] | IC50 (BT-474 cells) [nM] | IC50 [1] [nM] | GI50 (Ba/F3 ERBB2-L755S) [nM] | GI50 (Ba/F3 ERBB2 wt) [nM] | GI50 (Ba/F3 ERBB2-V777L) [nM] | GI50 [2] [nM] | GI50 (Ba/F3 ERBB2-G776VC) [nM] | GI50 [3] [nM] | GI50 (Ba/F3 ERBB2-T798M) [nM] | GI50 (Ba/F3 ERBB2-L869R) [nM] | GI50 [4] [nM]
1 | CC#CC(=O)Nc1ccc2ncnc(Nc3ccc(Oc4ccc(C)nc4)cc3)c2c1 [Compound 9, N-[4-([4-[(6-methylpyridin-3-yl)oxy]phenyl]amino)quinazolin-6-yl]but-2-ynamide] | 142 | 454 | 12.3 | 43.9 | 35 | 5.7 | 4.1 | 20 | 21 | 2.4 | 239 | 15 | 5.5
2 | CC#CC(=O)Nc1ccc2ncnc(Nc3ccc(Oc4ccn(C)c(=O)c4)c(C)c3)c2c1 [Compound 3, N-[4-([3-methyl-4-[(1-methyl-2-oxopyridin-4-yl)oxy]phenyl]amino)quinazolin-6-yl]but-2-ynamide] | 43.3 | 4440 | 13.5 | 152 | – | 18 | – | 8.1 | 30 | – | – | – | 7.1
3 | CC#CC(=O)Nc1ccc2ncnc(Nc3ccc(Cc4ccn5ncnc5c4)cc3)c2c1 [Compound 14, N-[4-[(4-[[1,2,4]triazolo[1,5-a]pyridin-7-ylmethyl]phenyl)amino]quinazolin-6-yl]but-2-ynamide] | 30.4 | 3550 | 9.6 | 14.3 | 25 | 5.1 | 1.5 | 36 | 13 | 4 | 482 | 9.5 | 3.8
